Assay results as given in the Kinase Knowledgebase extract (Sharma et al. 2016).

What was measured:
MAPK14 (human) [1] = molecular target: MAPK14 (human) (UniProt Q16539); experiment: Hydroxyurea-induced Hemoglobinization (K562 Cells); conditions: concentration not given here
MAPK14 (human) [2] = molecular target: MAPK14 (human) (UniProt Q16539); experiment: Sodium butyrate-induced Hemoglobinization (K562 Cells); conditions: concentration not given here

Sequence of MAPK14 (human) (Q16539 whole entry, looked up): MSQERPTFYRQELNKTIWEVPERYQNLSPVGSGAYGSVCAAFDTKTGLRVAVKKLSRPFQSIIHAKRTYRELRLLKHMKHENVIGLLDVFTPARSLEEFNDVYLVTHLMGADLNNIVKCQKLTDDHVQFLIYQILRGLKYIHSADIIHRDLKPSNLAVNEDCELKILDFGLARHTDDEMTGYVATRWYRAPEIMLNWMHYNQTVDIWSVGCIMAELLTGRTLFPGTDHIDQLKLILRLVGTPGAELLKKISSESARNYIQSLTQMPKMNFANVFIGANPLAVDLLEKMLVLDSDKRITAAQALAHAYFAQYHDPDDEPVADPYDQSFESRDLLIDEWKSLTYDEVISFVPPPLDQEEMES

Row | SMILES | cell count (MAPK14 (human) [1]) [%] | cell count (MAPK14 (human) [2]) [%]
1 | COc1cccc(-c2cc(=O)c3ccccc3o2)c1N.NC(=O)NO | 54 | 
2 | COc1cccc(-c2cc(=O)c3ccccc3o2)c1N | 32.4 | 
3 | CCCC(=O)[O-].[Na+] |  | 39.8
